From ChEMBL document CHEMBL5346945, “Discovery and Optimization of the First ATP Competitive Type-III c-MET Inhibitor” (J Med Chem, 2023)

Columns and labels:
[1] = Metabolic stability in Han Wistar rat hepatocytes assessed as intrinsic clearance measured per million cells at 1 uM measured at 0.5 to 2 hrs by LC-MS/MS analysis; format: ADME, cell-based, Hepatocyte; settings: time 0.5-2 hrs, read-out: CLH
[2] = molecular target: T1, Hepatocyte growth factor receptor (Homo sapiens, UniProt P08581); settings: dose 100.0 nM
T1 sequence (P08581 whole entry): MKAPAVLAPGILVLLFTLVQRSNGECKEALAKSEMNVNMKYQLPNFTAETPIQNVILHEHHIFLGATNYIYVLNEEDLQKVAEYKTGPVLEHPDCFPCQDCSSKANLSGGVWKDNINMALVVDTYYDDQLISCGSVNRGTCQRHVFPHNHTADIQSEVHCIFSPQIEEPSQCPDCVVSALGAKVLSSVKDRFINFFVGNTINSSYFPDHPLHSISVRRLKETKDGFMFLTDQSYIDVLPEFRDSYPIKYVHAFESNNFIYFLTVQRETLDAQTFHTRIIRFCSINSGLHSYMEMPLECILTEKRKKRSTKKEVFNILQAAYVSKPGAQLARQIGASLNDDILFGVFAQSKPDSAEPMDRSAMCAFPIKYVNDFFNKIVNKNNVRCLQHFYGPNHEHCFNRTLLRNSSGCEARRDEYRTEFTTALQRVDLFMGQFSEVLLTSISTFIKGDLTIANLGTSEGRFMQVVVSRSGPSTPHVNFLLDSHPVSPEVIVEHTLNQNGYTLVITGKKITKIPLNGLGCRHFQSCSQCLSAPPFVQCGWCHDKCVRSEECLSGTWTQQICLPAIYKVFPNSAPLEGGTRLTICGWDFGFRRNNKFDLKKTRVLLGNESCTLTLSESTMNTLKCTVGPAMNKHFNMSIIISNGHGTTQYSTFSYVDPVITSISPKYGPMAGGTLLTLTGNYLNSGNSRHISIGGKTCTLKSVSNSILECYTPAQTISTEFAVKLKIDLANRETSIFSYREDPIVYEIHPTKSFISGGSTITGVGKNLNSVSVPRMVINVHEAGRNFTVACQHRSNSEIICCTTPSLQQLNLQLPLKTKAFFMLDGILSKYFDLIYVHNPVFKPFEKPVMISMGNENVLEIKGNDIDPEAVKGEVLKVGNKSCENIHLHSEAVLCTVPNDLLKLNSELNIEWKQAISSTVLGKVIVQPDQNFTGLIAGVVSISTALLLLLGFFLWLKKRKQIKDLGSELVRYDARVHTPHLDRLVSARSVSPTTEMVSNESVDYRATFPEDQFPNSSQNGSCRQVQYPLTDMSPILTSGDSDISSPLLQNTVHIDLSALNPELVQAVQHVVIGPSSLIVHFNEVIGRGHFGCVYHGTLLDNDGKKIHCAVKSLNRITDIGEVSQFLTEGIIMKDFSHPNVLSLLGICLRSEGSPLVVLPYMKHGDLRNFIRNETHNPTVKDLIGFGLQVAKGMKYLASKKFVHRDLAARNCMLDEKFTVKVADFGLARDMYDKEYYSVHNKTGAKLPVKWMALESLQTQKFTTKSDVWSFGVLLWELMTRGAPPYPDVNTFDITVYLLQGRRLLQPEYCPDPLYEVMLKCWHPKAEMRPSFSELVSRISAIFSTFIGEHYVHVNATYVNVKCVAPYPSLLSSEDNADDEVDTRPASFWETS
Description: Inhibition of c-MET (unknown origin) at 100 nM relative to control

[3] = Metabolic stability in human liver microsomes assessed as intrinsic clearance at 1 uM preincubated with NADPH for 8 mins followed by compound addition measured at 0.5 to 30 mins by LC-MS/MS analysis; format: ADME, Microsome; settings: time 0.5-30 min, read-out: CLH
[4] = molecular target: Macrophage-stimulating protein receptor (Homo sapiens) (UniProt Q04912); settings: dose 100.0 nM
Macrophage-stimulating protein receptor (Homo sapiens), sequence (Q04912 25-304 limits assumed): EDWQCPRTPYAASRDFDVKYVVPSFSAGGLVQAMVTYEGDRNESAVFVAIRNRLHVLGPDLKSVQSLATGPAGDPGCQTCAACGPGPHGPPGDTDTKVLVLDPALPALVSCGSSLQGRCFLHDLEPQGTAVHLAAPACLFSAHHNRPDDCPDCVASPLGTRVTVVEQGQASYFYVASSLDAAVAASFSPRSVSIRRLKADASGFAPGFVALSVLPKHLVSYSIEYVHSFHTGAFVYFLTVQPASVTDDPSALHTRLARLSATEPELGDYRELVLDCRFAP
Macrophage-stimulating protein receptor (Homo sapiens), sequence (Q04912 310-1400 limits assumed): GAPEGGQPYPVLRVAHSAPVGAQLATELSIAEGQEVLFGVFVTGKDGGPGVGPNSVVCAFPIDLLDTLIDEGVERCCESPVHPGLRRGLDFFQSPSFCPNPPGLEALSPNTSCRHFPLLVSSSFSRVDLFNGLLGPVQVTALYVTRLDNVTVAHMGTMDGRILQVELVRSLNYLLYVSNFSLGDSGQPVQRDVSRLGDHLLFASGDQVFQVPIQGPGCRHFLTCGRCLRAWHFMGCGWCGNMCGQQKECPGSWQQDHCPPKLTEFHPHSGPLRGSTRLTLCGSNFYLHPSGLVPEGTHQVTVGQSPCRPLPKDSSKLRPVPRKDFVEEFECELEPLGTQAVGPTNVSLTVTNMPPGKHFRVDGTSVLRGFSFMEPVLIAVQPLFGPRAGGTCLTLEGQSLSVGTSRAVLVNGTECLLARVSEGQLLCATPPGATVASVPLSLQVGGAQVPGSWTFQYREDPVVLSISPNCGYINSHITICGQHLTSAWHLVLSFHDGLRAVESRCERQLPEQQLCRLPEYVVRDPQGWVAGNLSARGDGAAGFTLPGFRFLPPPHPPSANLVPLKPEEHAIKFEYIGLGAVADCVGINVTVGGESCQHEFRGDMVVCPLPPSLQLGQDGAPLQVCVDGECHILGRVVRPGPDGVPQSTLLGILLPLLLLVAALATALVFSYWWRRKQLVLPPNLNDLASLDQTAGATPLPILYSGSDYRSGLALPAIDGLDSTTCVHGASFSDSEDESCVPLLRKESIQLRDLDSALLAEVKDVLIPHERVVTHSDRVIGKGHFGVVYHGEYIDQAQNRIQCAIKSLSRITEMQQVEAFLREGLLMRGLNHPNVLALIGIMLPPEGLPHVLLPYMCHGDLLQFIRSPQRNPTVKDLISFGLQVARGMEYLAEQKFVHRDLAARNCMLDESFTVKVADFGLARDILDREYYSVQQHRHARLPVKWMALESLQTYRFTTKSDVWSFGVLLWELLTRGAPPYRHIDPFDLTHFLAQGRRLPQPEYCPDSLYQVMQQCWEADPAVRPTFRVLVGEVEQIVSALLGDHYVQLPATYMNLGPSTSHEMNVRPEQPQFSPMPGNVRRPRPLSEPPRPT
Description: Inhibition of MST1R (unknown origin) at 100 nM relative to control

[5] = molecular target: T2, Tyrosine-protein kinase Mer (Homo sapiens) (UniProt Q12866); settings: dose 100.0 nM
T2 sequence (whole entry): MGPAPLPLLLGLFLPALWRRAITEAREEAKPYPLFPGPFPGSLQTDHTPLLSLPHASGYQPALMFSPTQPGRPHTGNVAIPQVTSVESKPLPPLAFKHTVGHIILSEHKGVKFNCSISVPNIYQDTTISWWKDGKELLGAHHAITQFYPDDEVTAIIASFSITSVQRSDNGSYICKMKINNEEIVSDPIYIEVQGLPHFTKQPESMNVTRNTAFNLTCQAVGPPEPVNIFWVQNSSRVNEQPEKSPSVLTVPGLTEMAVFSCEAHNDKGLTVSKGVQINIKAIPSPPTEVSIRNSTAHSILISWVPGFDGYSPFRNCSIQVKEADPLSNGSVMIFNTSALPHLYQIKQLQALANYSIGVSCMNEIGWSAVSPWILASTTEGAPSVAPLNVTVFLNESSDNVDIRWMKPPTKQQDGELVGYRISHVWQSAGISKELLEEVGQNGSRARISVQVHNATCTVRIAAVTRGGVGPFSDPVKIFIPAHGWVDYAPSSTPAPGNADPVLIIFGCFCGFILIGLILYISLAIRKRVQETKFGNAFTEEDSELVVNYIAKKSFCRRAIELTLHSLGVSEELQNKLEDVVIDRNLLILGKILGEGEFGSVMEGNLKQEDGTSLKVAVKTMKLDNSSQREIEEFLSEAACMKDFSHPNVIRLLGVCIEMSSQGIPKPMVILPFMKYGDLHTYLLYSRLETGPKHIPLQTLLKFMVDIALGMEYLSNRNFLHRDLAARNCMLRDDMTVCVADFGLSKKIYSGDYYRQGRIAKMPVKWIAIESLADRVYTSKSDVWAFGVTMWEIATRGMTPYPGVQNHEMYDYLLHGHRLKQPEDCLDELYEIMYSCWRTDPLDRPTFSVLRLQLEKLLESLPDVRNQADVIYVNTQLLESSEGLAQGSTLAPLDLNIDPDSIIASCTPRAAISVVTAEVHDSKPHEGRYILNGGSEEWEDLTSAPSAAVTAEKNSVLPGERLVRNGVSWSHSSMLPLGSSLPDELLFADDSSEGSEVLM
Description: Inhibition of MERTK (unknown origin) at 100 nM relative to control

[6] = molecular target: T1, Hepatocyte growth factor receptor; assay: Inhibition of wild type c-MET (unknown origin) using ATP and poly(L-glutamic acid-L-tyrosine) as substrate incubated for 60 mins measured by ADP-Glo kinase assay
[7] = molecular target: T3, Tyrosine-protein kinase receptor TYRO3 (Homo sapiens) (UniProt Q06418); settings: dose 100.0 nM
T3 sequence (whole entry): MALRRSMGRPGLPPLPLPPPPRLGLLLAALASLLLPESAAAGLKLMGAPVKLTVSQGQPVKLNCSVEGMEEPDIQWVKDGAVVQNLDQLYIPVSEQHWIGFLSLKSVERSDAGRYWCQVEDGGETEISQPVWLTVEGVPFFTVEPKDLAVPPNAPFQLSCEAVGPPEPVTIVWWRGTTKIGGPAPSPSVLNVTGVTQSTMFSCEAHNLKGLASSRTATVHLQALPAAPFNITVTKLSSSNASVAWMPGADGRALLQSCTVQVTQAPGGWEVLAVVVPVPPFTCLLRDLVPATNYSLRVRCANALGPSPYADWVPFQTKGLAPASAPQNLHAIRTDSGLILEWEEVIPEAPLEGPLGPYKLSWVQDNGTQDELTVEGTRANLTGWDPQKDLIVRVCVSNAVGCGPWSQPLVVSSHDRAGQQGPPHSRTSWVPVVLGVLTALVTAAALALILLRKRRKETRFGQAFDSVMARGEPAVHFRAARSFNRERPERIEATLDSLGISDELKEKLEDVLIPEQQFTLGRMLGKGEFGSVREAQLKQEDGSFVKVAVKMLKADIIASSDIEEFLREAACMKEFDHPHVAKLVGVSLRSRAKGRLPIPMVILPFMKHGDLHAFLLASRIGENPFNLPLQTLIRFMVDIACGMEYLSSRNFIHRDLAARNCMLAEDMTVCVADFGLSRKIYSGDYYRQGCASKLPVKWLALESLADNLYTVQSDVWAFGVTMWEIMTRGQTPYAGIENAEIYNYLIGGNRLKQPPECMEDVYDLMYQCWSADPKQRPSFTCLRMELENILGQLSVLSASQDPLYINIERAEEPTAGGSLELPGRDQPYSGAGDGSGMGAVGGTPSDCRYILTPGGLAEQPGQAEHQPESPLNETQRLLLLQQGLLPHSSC
Description: Inhibition of TYRO3 (unknown origin) at 100 nM relative to control

[8] = Lipophilicity, logD of compound in octanol and water at pH 7.4 measured by shake-flask method; format: physicochemical

`C#Cc1n[nH]c2c(-c3cn([C@@H](C)c4ccccn4)c(=O)[nH]c3=O)cc(F)cc12` gave a hepatocyte CLint at 1 µM [1] of 6.07 µL/min/1e6 cells, an inhibition [2] of 80% and a microsomal CLint at 1 µM [3] of 18 µL/min/mg. For the same compound, the inhibition [4] was under 50%, the inhibition [5] was 75.3% and the IC50 [6] was 0.016 µM. The inhibition [7] was under 50% and the logD [8] was 2.7.
